In patent publication US10844023B2 (Washington University, priority 2017, dated 2020):
Where two headings read alike, the source gives them in different places.

Key:
[1] = Plasma protein binding, mouse; assay type: in vitro ADME; settings: read-out: plasma protein bound in the mouse (converted)
Method: (§1) Plasma protein binding was measured using equilibrium dialysis; % bound=(1-[free compound in dialysate]/[total compound in retentate])×100. Plasma stability of […] compound in clarified freeze-thawed plasma was assessed by LC-MS/MS of supernatants after protein precipitation; 120 min data are reported for studies including 0, 10, 30, 60, and 120 min. Microsome stability of […] compound in liver microsomes (0.5 mg/ml) after 0, 5, 10, 20, 30, 60 min. incubation was assessed by LC/MS/MS of reaction extracts.

[2] = Liver microsome stability; assay type: in vitro ADME
Method: as §1

[3] = Plasma protein binding (equilibrium dialysis); assay type: in vitro ADME
Method: as §1

[4] = tested on: Mfn2 null MEFs; assay: Mitochondrial elongation (aspect ratio) fusogenicity assay; assay type: cell-based, mouse
[5] = Parallel artificial membrane permeability assay (PAMPA); assay type: in vitro ADME
[6] = In vivo pharmacokinetics in mice; settings: mouse, plasma, intramuscular, 1 mg/kg
Method: (A) Three mice each were administered 1 mg/kg agonist IV, IP, or IM. Graphs are mean plasma concentration for each administration route. (B) Results for individual mice were administered 1 mg/kg indicated agonist IM.

[7] = target: P-gp/MDR1 (Homo sapiens, UniProt P08183); assay: P-gp/MDR1 transport; assay type: in vitro ADME
P-gp/MDR1, sequence (P08183 whole entry): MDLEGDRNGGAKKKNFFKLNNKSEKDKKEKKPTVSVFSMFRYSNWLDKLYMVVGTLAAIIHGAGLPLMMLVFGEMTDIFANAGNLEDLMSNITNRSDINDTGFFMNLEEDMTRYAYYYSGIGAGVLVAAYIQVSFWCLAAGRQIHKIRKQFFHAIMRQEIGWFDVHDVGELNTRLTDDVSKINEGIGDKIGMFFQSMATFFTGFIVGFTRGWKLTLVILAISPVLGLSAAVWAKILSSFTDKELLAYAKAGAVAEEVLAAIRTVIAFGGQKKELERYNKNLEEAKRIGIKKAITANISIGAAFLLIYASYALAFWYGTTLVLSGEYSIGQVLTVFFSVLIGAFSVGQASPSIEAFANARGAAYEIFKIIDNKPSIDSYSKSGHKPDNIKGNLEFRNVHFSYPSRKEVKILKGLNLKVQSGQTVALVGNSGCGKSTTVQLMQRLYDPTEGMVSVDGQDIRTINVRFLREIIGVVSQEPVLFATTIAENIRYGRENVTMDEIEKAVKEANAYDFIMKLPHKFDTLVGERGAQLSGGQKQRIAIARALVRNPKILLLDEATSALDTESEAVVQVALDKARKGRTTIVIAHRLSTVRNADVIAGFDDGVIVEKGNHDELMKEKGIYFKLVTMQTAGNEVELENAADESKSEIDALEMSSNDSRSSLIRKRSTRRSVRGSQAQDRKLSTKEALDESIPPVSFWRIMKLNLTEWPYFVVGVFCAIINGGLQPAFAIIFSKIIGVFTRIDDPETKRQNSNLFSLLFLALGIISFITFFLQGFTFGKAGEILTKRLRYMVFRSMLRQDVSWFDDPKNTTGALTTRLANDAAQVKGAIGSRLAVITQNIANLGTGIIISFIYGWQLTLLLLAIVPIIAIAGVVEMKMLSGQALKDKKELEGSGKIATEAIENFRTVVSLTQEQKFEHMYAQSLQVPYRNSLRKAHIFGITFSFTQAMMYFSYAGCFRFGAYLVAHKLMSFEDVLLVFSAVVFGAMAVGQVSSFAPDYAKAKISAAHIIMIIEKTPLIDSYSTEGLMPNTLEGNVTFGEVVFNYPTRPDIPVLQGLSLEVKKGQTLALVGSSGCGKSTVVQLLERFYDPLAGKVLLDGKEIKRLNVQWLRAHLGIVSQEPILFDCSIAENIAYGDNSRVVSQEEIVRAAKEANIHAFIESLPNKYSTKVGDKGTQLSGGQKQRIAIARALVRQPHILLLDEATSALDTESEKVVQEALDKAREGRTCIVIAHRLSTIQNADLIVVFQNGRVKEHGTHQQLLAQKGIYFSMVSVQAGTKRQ

[8] = tested on: CMT2A MFN2 T105M mice; assay: In vivo sciatic nerve mitochondrial motility in CMT2A mice; parameters: species or system mouse; settings: IM, 2 mg/kg, assessed 4 hours later
Method: Sciatic nerve mitochondrial motility was measured 4 hours later. Results described in FIG. 58 are for 2 CMT2A mice per group.

SMILES | fraction unbound [1] | Liver microsome stability [2] | Plasma protein binding [3] | EC50 ([4]; Mus musculus, increase in mitochondrial aspect ratio) | Fusogenic activity ([4]; mitochondrial elongation / fusion) | Passive diffusion across lipid-infused artificial membrane (PAMPA, words) [5] | concentration at 2 h ([6]; 1 mg/kg IM, read-out: total plasma drug concentration 2 hours after IM administration) | concentration at 2 h ([6]; IM, from total concentration and protein binding, read-out: free drug concentration 2 hours after IM administration) | concentration at 2 h ([6]; IM, read-out: free drug concentration 2 hours after IM administration) | P-gp mediated transport [7] | Sciatic nerve axon mitochondrial motility in vivo [8]
CCn1c(CCCNC(=O)NC2CCOCC2)nnc1C1CC1 [Mitolityn-4, 1-(3-(5-cyclopropyl-4-ethyl-4H-1,2,4-triazol-3-yl)propyl)-3-(tetrahydro-2H-pyran-4-yl)urea] | 0.888 | stability in the liver microsome assay | low plasma protein binding | ~3 nM | highest potency | no passive diffusion across lipid membrane | 7.5 ng/mL | ~6.66 ng/mL | ~20 nM | no reverse transport by P-gp | –
O=C(NCCCc1nnc(C2CC2)n1-c1ccccc1)NC1CCOCC1 [Regeneurin-C/O, 1-(3-(5-cyclopropyl-4-phenyl-4H-1,2,4-triazol-3-yl)propyl)-3-(tetrahydro-2H-pyran-4-yl)urea] | – | – | – | – | – | – | – | – | – | – | reverses the characteristic mitochondrial immobility in sciatic nerve axons
